Read-outs that look alike come from different tables or passages of the source.
Tests used:
[1] = test system: T. cruzi intracellular amastigotes; assay: Anti-amastigote assay in infected peritoneal macrophages (infection index); assay type: cell-based, Trypanosoma cruzi; conditions: 48 h, read-out: IC50 Ama
Method: (§1) The cells and parasites were kept at 37 °C in a humidified atmosphere containing 5% CO2.
The cells were plated on a 16-well chamber slide – NUNC (Thermo Fisher Scientific) at 1 × 10^5 cells/well and incubated for 24 h at 37 °C in a 5% CO2 humidified incubator. […] Tested compounds were subsequently incubated with infected macrophages for 48 h at 37 °C (5% CO2 humidified incubator) in different nontoxic concentrations. Benznidazole was used as standard drug. At the end of the assay, slides were fixed with MeOH and stained with Giemsa, counted under a light microscope (EVOS M5000, Thermo, USA) and IC50 values were determined by the infection index.
(§2) IC50 and CC50 values were calculated using a sigmoid dose-response curves in Graph–Pad Prism 5.0 software (GraphPad Software - San Diego, CA, USA). For the mechanism of action studies one-way ANOVA (Turkey’s Multiple Comparison test) was used for significance (p < 0.05). The assays were repeated at least twice and the samples were tested in duplicate.

[2] = test system: T. cruzi (Y strain) trypomastigotes; assay: Anti-trypomastigote assay (resazurin viability); assay type: cell-based, Trypanosoma cruzi; conditions: for IC50: read-out: IC50 trypo
Method: as §1
Benznidazole was used as the standard drug. The optical density was determined in FilterMax F5 (Molecular Devices) at 570 nm[38].
as §2

[3] = PAMPA intestinal model (GIT); assay type: in vitro ADME
Method: Intestinal permeability of tested compounds was estimated applying the PAMPA model previously developed and validated. Briefly, stock solutions were prepared in dimethyl sulfoxide (DMSO) at the concentrations of 10 mM and then diluted with Tris buffer to give the final concentration donor solution at 300 µM and 5% DMSO. The assay procedure was initiated by filling each well of the microtiter plate (MultiScreen, catalogue no. MATRNPS50, Millipore Corporation, Bedford, MA, USA) with 300 μL of each donor drug solution. Carefully, and avoiding the pipette tip contact with the filter, the hydrophobic filter (0.45 μm) of each acceptor well of the 96-well microfilter plate (MultiScreen-IP, catalogue no. MAIPNTR10, Millipore Corporation, Bedford, MA, USA) was adsorbed with 6 μL of the artificial lipid solution which was composed of 2% of L-α-phosphatidylcholine from soybean dissolved, by sonication, in n-dodecane. Immediately after this application, 150 μL of Tris buffer containing 5% DMSO was added to the receiving well. The receiving well was mounted on the donor plate, keeping the underside of the membrane in contact with the donor solution. The assembled donor–acceptor plates were incubated under constant stirring (3 g) at 25 °C for approximately 16 h. Subsequently, the quantity of each compound presented at the receptor solution (150 μL) was determined by UV/VIS spectrophotometrically.

[4] = Cytotoxicity against mammalian cells (MTT); assay type: cell-based, Murine; conditions: mouse, NCTC clone L929 cells
Method: Rhesus monkey kidney cells (LLC-MK2-ATCC CCL 7) were used for the maintenance of trypomastigotes of T. cruzi (Y strain) using RPMI-1640 medium supplemented with 2% fetal bovine serum (FBS). The cells and parasites were kept at 37 °C in a humidified atmosphere containing 5% CO2. Peritoneal macrophages, used in the experiments of anti-amastigote assay, were obtained by washing the peritoneal cavity of BALB/c mice, with RPMI-1640 medium supplemented with 10% FBS and kept at 37 °C in a 5% CO2 humidified incubator. Murine conjunctive cells (NCTC clone 929, ATCC) and LLC-MK2 were kept in RPMI-1640 supplemented with 10% FBS at the same conditions described above.
NCTC cells-clone L929 (6 × 10^4 cells/well) were seeded and incubated with tested compounds (200–1.56 µM) for 48 h at 37 °C in a 5% CO2 humidified incubator. Cytotoxic concentration (CC50) was determined by MTT assay. Optical density was determined in FilterMax F5 (Molecular Devices) at 570 nm. Selectivity Index (SI) was determined using the following ratio: CC50 against NCTC cells/IC50 against parasites.
as §2

PAMPA-BBB model = assay type: in vitro ADME
Method: The methodology herein applied was similar to that described in the previous section, however with the purpose of assessing the permeability of the compounds through the blood brain barrier (BBB). Thus, stock solutions (10 mM) of each test compound were prepared in DMSO and diluted with phosphate buffered saline (PBS) at pH 7.4. The final concentration of donor solutions was 300 μM and DMSO of 5%. Artificial membrane lipid solutions were prepared daily by dissolving, in n-dodecane, the porcine brain lipid extracted as described[40] at the final concentration of 2% (m/v). PAMPA procedure was similar to that described in the previous section although, in PAMPA-BBB, the donor and acceptor solutions were prepared using phosphate buffer saline (PBS) at pH 7.4 and the Papp was obtained through the equation previously reported.

[5] = Trypanosoma cruzi, Peritoneal macrophage, in Mus musculus, intracellular amastigotes in BALB/c peritoneal macrophages
[6] = Trypanosoma cruzi, T. cruzi trypomastigotes, 24 h incubation, resazurin
[7] = PAMPA intestinal model, 300 µM donor, Tris buffer, 25 °C, 16 h, read-out: Papp GIT
[8] = PAMPA-BBB model, 300 µM donor, PBS pH 7.4, read-out: Papp BBB

| Compound | IC50 [1, 5] [µM] | anti-T. cruzi activity (in words) ([2]; Table 1 assays) | IC50 [2, 6] [µM] | Papp at 16 h, 300 µM ([3]; PAMPA) [×10⁻⁶ cm/s] | CC50 at 48 h [4] [µM] | Papp at 16 h, 300 µM (PAMPA-BBB model; PAMPA, pH 7.4) [×10⁻⁶ cm/s] | IC50 ([1]; Trypanosoma cruzi, Peritoneal macrophage, in Mus musculus) [µM] | IC50 ([2]; Trypanosoma cruzi, 24 h) [µM] | Papp at 16 h, 300 µM [3, 7] [×10⁻⁶ cm/s] | Papp at 16 h, 300 µM (PAMPA-BBB model; [8]) [×10⁻⁶ cm/s] | IC50 ([1]; intracellular amastigotes in BALB/c peritoneal macrophages) [µM] | IC50 ([2]; T. cruzi trypomastigotes, 24 h incubation, resazurin) [µM] |
| --- | --- | --- | --- | --- | --- | --- | --- | --- | --- | --- | --- | --- |
| C=CCOc1ccc(/C=C/C)cc1OC [4c, 1-allyloxy-2-methoxy-4-[(E)-prop-1-enyl]benzene] | > 100 | did not display activity | > 100 | 0.13 | > 200 | 0.2 |  |  |  |  |  |  |
| C=CCc1cc(/C=C/C)cc(OC)c1O [4d, 2-allyl-6-methoxy-4-[(E)-prop-1-enyl]phenol] | 10.4 ± 0.9 |  | 21.2 ± 3.7 | 1.2 | > 200 | 0.74 |  |  |  |  |  |  |
| C=CCc1ccc(OC)c(OC)c1 [5a, 4-allyl-1,2-dimethoxy-benzene] |  |  |  |  | > 200 |  | > 100 | > 100 | 2.35 | 1.56 |  |  |
| C=CCc1ccc(OC(C)=O)c(OC)c1 [5b, (4-allyl-2-methoxy-phenyl) acetate] | > 100 |  | > 100 | 2.81 | > 200 | 2.28 |  |  |  |  |  |  |
| C=CCOc1ccc(CC=C)cc1OC [5c, 4-allyl-1-allyloxy-2-methoxy-benzene] | > 100 |  | > 100 | 1.21 | > 200 | 0.32 |  |  |  |  |  |  |
| C=CCc1cc(CC=C)c(O)c(OC)c1 [5d, 2,4-diallyl-6-methoxy-phenol] | > 100 |  | > 100 | 0.65 | > 200 | 0.32 |  |  |  |  |  |  |
| O=C(Cn1ccnc1[N+](=O)[O-])NCc1ccccc1 [Bnz, benznidazole, reference compound] | 18.7 ± 2.6 |  | 5.5 ± 0.9 |  | > 200 |  |  |  |  |  |  |  |
| C/C=C/c1cc(OC)c2c(c1)[C@H](C)[C@@H](c1ccc(O)c(OC)c1)O2 [compound 1, Licarin A] | > 100 |  | 54.3 ± 8.9 | 0.85 | > 200 | 2.37 |  |  |  |  |  |  |
| COc1cc(C=O)ccc1O [compound 2, vanillin] | 5.5 ± 0.6 |  | > 100 |  | > 200 |  |  |  | 1.41 | 6.15 |  |  |
| COc1cc(CO)ccc1O [compound 3, vanillyl alcohol] | > 100 |  | > 100 | 0.18 | > 200 | 0.64 |  |  |  |  |  |  |
| isoeugenol [compound 4] |  |  |  |  |  |  |  |  |  |  | > 100 | 50.7 ± 17.4 |

From PMC7096397, “Improving the drug-likeness of inspiring natural products - evaluation of the antiparasitic activity against Trypanosoma cruzi through semi-synthetic and simplified analogues of licarin A” (Scientific Reports, 2020)
